# Laboratory results published in patent publication US10039759B2, “Quinolines as FGFR kinase modulators” (priority 2011, dated 2018).
# Where two headings read alike, the source gives them in different places.
# Key:
# [1] = target: T1, Ba/F3-KDR-transfected cells (Homo sapiens, UniProt P35968, cells depend on it, form not given); assay: Ba/F3-KDR (minus IL3 or plus IL3) cellular proliferation assay, Alamar Blue; format: cell-based; details: minus IL3; 24 hours, Alamar Blue
# T1 construct: BAF3-KDR (MIN IL3 Alamar Blue pIC50); other: minus IL3; 24 hours, Alamar Blue
# In short: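 Ba/F3-KDR cells, 20000 per well, exposed to compounds (10 μM to 0.1 nM) for 24 h at 37°C in RPMI/10% FBS, then Alamar Blue for 4 h; fluorescence ex 540/em 590 nm gives IC50 and pIC50. Counterscreen run with 10 ng/ml murine IL3.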
# [2] = target: T2, Ba/F3-FGFR3-transfected cells (Homo sapiens, UniProt P22607, cells depend on it, form not given); assay: Ba/F3-FGFR3 (minus IL3 or plus IL3) cellular proliferation assay, Alamar Blue; format: cell-based; details: minus IL3; 24 hours, Alamar Blue
# T2 construct: BAF3-FGFR3 (MIN IL3 Alamar Blue- pIC50); other: minus IL3; 24 hours, Alamar Blue
# In short: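 Ba/F3-FGFR3 cells (20000 per well) in phenol red-free RPMI-1640 with 10% FBS were exposed to compound (10 μM to 0.1 nM) for 24 h at 37° C. Alamar Blue was then added for 4 h and fluorescence read (ex 540, em 590 nm) to give IC50/pIC50; the counterscreen was run with 10 ng/ml murine IL3.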
# [3] = target: T3, Ba/F3-FGFR1-transfected cells (Homo sapiens, UniProt P11362, cells depend on it, form not given); assay: Ba/F3-FGFR1 (minus IL3 or plus IL3) cellular proliferation assay, Alamar Blue; format: cell-based; details: minus IL3, 24 hours
# T3 construct: other: minus IL3; 24 hours, Alamar Blue
# In short: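 Ba/F3-FGFR1 cells (20000/well) were treated with compound (10 μM–0.1 nM) for 24 h at 37 °C. Alamar Blue was then added for 4 h, with fluorescence read at ex 540/em 590 nm to give IC50/pIC50. A counterscreen was run with 10 ng/ml murine IL3.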
# FGFR2 (h) = FGFR2 (h) (Homo sapiens, UniProt P21802); assay: FGFR2 (enzymatic assay), TR-FRET; format: biochemical; details: 60 min, pIC50 = -log IC50 (M), average if tested multiple times
# [4] = target: Ba/F3-FGFR4-transfected cells (Homo sapiens, UniProt P22455); assay: Ba/F3-FGFR4 cellular proliferation assay, Alamar Blue; format: cell-based; details: 24 hours
# In short: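 Ba/F3 cells transfected with human FGFR4, 20000 per well in phenol red-free RPMI-1640 with 10% FBS, exposed to compound (10 μM to 0.1 nM) for 24 h at 37 °C. Viability by Alamar Blue (resazurin), 4 h, fluorescence ex 540/em 590 nm; IC50 and pIC50 calculated.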
# KDR (h) = KDR (h) (Homo sapiens, UniProt P35968); assay: KDR (VEGFR2) (enzymatic assay), TR-FRET; format: biochemical; details: 120 min, pIC50 = -log IC50 (M), average if tested multiple times
# In short: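 Recombinant human KDR (150 ng/ml) phosphorylated 500 nM Btn-Flt3 with 3 μM ATP in HEPES pH 7.5/MnCl2 buffer, 1% DMSO, 120 min at room temperature; EDTA stop with Eu-anti-P-Tyr/SA-XL665 detection, TR-FRET read. IC50 and pIC50 derived from compound concentrations spanning 10 μM to 0.1 nM.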
# FGFR4 (h) = FGFR4 (h) (Homo sapiens, UniProt P22455); assay: FGFR4 (enzymatic assay), TR-FRET; format: biochemical; details: FGFR 4 pIC50, 5 μM ATP, 60 min; pIC50 = -log IC50 (M); average if tested multiple times
# FGFR3 (h) = FGFR3 (h) (Homo sapiens, UniProt P22607); assay: FGFR3 (enzymatic assay), TR-FRET; format: biochemical; details: 60 min, pIC50 = -log IC50 (M), average if tested multiple times
# [5] = 0.4 μM ATP, read-out: FGFR 2 pIC50 (converted)
# [6] = 3 μM ATP, read-out: VEGFR KDR pIC50 (converted)
# [7] = 25 μM ATP, read-out: hFGFR 3 pIC50 (converted)
# Sequence of FGFR3 (h) (P22607 23-806): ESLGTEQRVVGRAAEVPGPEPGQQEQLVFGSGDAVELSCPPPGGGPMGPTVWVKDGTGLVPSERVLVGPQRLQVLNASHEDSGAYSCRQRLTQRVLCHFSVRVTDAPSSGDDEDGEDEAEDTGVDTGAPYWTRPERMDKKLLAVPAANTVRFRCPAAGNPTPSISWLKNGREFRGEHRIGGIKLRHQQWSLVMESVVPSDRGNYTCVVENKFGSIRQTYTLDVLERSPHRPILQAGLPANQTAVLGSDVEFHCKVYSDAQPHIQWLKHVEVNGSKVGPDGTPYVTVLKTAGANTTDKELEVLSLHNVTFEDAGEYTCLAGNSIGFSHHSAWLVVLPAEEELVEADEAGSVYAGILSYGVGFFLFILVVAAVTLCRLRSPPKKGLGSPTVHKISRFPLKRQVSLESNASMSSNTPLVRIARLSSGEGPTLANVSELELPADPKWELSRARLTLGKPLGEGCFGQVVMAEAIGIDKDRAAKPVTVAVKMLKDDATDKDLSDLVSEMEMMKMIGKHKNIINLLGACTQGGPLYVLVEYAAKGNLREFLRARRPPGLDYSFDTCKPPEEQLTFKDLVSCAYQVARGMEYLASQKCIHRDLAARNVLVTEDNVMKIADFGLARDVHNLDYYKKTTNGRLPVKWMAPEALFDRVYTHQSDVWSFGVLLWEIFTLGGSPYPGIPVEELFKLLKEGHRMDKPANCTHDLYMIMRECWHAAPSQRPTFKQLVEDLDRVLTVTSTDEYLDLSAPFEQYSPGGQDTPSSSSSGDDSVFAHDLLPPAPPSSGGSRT
# Sequence of KDR (h) (P35968 20-1356): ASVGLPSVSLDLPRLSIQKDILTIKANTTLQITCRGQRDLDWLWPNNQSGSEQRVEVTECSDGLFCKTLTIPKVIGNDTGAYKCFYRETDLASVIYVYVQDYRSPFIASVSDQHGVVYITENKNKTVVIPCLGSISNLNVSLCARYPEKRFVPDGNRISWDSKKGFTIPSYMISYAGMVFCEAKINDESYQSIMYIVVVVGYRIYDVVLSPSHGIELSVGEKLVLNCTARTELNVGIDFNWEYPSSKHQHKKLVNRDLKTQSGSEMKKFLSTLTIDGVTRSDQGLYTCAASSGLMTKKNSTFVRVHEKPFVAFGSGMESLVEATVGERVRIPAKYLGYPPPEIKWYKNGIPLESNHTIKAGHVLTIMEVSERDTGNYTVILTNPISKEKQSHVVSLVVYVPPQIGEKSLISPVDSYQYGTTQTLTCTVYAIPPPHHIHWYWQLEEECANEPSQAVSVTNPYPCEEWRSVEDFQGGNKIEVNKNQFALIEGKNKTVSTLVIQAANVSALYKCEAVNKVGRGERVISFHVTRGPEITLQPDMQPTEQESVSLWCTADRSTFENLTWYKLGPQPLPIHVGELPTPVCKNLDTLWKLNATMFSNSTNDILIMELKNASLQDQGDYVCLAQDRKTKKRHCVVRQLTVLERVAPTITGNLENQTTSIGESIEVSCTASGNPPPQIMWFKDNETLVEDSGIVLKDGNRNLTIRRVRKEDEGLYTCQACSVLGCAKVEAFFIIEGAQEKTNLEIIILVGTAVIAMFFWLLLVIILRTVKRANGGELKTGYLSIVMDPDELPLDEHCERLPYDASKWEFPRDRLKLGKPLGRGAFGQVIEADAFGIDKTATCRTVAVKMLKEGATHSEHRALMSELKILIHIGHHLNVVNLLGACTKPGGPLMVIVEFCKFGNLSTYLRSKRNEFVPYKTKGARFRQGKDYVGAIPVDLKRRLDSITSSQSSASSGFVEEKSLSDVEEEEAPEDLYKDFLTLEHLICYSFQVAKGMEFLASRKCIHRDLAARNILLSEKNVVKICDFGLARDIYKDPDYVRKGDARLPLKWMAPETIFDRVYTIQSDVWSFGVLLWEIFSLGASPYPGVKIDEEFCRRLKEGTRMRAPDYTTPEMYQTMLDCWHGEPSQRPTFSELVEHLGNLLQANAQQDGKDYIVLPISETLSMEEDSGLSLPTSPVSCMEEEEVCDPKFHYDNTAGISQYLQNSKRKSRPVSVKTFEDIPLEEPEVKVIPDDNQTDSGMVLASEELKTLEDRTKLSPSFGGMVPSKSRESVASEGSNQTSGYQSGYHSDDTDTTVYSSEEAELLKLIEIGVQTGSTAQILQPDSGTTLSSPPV
# Sequence of Ba/F3-FGFR4-transfected cells (P22455 whole entry, change not shown): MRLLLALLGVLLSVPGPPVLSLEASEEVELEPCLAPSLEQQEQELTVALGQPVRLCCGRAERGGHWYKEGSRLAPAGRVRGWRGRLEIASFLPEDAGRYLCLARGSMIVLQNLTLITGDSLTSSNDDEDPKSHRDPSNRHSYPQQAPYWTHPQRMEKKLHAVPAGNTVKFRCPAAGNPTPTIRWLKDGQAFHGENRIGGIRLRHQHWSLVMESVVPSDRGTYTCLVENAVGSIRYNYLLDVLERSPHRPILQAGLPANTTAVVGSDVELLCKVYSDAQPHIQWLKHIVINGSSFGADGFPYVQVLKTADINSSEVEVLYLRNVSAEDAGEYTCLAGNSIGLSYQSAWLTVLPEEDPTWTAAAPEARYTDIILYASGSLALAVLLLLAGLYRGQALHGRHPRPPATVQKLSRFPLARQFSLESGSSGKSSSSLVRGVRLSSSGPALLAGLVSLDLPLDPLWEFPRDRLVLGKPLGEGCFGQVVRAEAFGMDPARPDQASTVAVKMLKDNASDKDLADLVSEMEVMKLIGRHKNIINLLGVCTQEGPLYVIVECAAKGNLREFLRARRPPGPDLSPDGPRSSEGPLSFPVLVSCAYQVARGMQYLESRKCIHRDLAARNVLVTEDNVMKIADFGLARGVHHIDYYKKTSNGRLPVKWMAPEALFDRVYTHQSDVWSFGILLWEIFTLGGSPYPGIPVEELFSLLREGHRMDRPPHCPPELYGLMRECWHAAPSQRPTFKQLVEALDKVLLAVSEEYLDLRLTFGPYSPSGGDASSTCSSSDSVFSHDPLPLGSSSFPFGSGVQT
# Sequence of FGFR2 (h) (P21802 22-821): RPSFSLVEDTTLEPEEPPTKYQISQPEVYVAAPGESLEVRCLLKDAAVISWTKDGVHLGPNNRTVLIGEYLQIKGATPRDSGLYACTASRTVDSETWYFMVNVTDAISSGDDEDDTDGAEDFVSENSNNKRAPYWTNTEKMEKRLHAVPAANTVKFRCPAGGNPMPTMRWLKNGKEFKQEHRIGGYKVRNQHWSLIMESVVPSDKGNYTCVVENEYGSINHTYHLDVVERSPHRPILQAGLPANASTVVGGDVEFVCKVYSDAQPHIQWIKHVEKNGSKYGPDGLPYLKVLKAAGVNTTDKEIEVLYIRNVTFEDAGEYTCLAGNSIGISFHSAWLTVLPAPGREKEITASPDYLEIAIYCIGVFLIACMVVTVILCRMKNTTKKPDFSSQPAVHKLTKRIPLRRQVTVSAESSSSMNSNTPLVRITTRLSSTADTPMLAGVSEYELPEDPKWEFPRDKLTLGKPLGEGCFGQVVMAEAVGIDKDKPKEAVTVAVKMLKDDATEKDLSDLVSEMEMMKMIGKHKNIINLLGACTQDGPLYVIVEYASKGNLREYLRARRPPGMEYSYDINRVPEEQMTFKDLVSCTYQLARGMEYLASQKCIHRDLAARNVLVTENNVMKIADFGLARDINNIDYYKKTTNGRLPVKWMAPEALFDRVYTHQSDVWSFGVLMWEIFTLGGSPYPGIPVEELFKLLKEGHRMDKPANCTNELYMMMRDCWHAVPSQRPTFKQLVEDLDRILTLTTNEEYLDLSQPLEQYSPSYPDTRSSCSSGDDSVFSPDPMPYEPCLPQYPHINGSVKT
# T3 sequence (P11362 whole entry, change not shown): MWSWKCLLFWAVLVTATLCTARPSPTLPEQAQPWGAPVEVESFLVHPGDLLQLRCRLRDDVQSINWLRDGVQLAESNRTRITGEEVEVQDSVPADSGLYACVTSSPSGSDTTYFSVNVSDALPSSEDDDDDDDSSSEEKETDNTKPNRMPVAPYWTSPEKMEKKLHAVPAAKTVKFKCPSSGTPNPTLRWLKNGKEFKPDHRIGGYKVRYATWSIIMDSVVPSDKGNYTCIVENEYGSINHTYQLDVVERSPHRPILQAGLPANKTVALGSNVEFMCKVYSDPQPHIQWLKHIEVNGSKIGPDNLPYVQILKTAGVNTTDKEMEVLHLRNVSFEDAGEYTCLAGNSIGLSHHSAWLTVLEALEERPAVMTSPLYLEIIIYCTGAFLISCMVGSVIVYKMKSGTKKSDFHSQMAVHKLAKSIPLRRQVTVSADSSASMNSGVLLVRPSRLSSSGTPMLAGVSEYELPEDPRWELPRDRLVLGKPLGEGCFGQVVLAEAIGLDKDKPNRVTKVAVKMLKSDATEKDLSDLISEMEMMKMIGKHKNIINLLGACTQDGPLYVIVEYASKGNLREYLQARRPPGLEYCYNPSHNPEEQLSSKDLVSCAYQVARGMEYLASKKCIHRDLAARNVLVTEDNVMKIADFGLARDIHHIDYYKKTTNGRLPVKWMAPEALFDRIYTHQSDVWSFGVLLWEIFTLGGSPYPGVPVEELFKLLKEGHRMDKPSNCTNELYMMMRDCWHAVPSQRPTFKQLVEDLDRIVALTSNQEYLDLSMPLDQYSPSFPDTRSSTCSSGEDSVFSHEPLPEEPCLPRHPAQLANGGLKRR
Compound,BAF3-KDR (MIN IL3 Alamar Blue pIC50) [1],BAF3-FGFR3 (MIN IL3 Alamar Blue- pIC50) [2],BAF3-FGFR1 (MIN IL3 pIC50) [3],IC50 (FGFR2 (h); [5]) [M],BAF3-FGFR 4 (pIC50) [4],IC50 (KDR (h); [6]) [M],IC50 (FGFR4 (h)) [M],IC50 (FGFR3 (h); [7]) [M],"IC50 (KDR (h); VEGFR KDR pIC50, 3 μM ATP) [M]","IC50 (FGFR2 (h); FGFR 2 pIC50, 0.4 μM ATP) [M]","IC50 (FGFR3 (h); hFGFR 3 pIC50, 25 μM ATP) [M]"
COc1cc(OC)cc(N(CC2CCN(c3nccc(OC)n3)C2)c2ccc3ncc(-c4cnn(C)c4)cc3c2)c1 (stereo not drawn) [Compound 7],<5,<5,<5,> 1e-06,<5,> 1e-06,> 1e-06,9.12e-07,,,
COc1cc(OC)cc(N(Cc2ncccn2)c2ccc3ncc(-c4cnn(C)c4)cc3c2)c1 [Compound 8],<5,6.14,6.27,2e-08,5.64,8.13e-07,1.17e-07,3.24e-08,,,
COc1cc(OC)cc(N(Cc2nccn2S(=O)(=O)N(C)C)c2ccc3ncc(-c4cnn(C)c4)cc3c2)c1 [Compound 9],<5,6.17,6.14,7.76e-09,5.18,1.66e-07,1.45e-07,1.1e-08,,,
COc1cc(OC)cc(N(CCCN2CCCC2=O)c2ccc3ncc(-c4cnn(C)c4)cc3c2)c1 [Compound 10],5.11,6.2,6.03,1.29e-08,5.63,,8.32e-08,1.55e-08,8.13e-08,,
COc1cc(OC)cc(N(CCCN)c2ccc3ncc(-c4cnn(C)c4)cc3c2)c1 [Compound 11],5.42,6.97,6.67,2.29e-09,6.39,4.47e-08,2e-08,3.39e-09,,,
COc1cc(OC)cc(C(O)c2ccc3ncc(-c4cnn(C)c4)cc3c2)c1 (stereo not drawn) [Compound 12],<5,~5.075,<5.03,4.17e-07,<5,> 1e-06,> 9.33e-07,2.34e-07,,,
COc1cc(OC)cc(N(CCNC(C)C)c2ccc3ncc(-c4cnn(CCS(C)(=O)=O)c4)cc3c2)c1 [Compound 14],5.45,~6.95,7.2,5.25e-09,6.7,9.55e-08,7.41e-09,3.47e-09,,,
COc1cc(OC)cc(N(CC#Cc2nccc(OC)n2)c2ccc3ncc(-c4cnn(C)c4)cc3c2)c1 [Compound 16],<5,>8,>8,1.55e-08,8.21,8.91e-07,3.72e-08,1.35e-08,,,
COc1cc(OC)cc(N(CC#Cc2ncccc2OC)c2ccc3ncc(-c4cnn(C)c4)cc3c2)c1 [Compound 17],<5,7.63,7.35,1.2e-07,6.98,> 1e-06,2.75e-07,5.89e-08,,,
COc1cc(OC)cc(N(Cc2ncc[nH]2)c2ccc3ncc(-c4cnn(C)c4)cc3c2)c1 [Compound 18],5.01,7.22,6.88,2.51e-09,6.57,1.15e-07,4.79e-09,1.26e-09,,,
COc1cc(OC)cc(N(CCCN2CCCO2)c2ccc3ncc(-c4cnn(C)c4)cc3c2)c1 [Compound 19],5.1,6.26,6.32,,5.71,,6.03e-08,,1e-07,1.15e-08,5.62e-09
COc1cc(OC)cc(N(CCNC(C)C)c2ccc3ncc(-c4cn[nH]c4)cc3c2)c1 [Compound 21],5.49,7.57,7.55,2.57e-09,6.79,1.02e-07,5.37e-09,3.39e-09,,,
COc1cc(OC)cc(N(CCNC(C)C)c2ccc3ncc(-c4cnn(C5CCCCO5)c4)cc3c2)c1 (stereo not drawn) [Compound 22],5.79,7.78,7.85,3.89e-09,~7.11,4.37e-08,4.37e-09,2.4e-09,,,
COc1cc(OC)c(F)c(N(CC#Cc2ncccc2OC)c2ccc3ncc(-c4cnn(C)c4)cc3c2)c1 [Compound 26],5.11,8.17,7.95,1.05e-08,7.77,4.27e-07,1.26e-08,,,,4.9e-09
COc1cccnc1C#CCN(c1ccc2ncc(-c3cnn(C)c3)cc2c1)c1c(F)c(OC)cc(OC)c1F [Compound 27],5.335,8.22,8.715,5.62e-09,8.18,3.76e-08,3.13e-09,2.37e-09,,,
